Experimental data from patent US5151417A, “3-substituted vinyl cephalosporin derivatives” (Eisai Co., Ltd., priority 1989, dated 1992).
≈ marks a conversion by molar mass, not a printed value. Like-named read-outs stand apart in the source and are kept apart here.

Legend:
Assay type in all cases: cell-based
[1] = system: Staphylococcus aureus 209PJCl; assay: In vitro antibacterial activity, Staphylococcus aureus 209PJCl (Table 1)
Method: (§1) Typical compounds out of the compounds described in Examples were classified into some groups. On each compound group, in vitro antibacterial activities were tested by a method known per se in the art.

[2] = system: Escherichia coli MIHJ JC-2; assay: In vitro antibacterial activity, Escherichia coli MIHJ JC-2 (Table 1); conditions: MIHJJC2
Method: as §1

[3] = system: Klebsiella pneumoniae IID 875; assay: In vitro antibacterial activity, Klebsiella pneumoniae IID 875 (Table 1); conditions: IID875
Method: as §1

[4] = system: Serratia marcescens IID 620; assay: In vitro antibacterial activity, Serratia marcescens IID 620 (Table 1); conditions: IID620
Method: as §1

[5] = system: Morganella morganii IID 602; assay: In vitro antibacterial activity, Morganella morganii IID 602 (Table 1); conditions: IID602
Method: as §1

[6] = Staphylococcus aureus 209PJCl, read-out: MIC
[7] = Escherichia coli MIHJ JC-2, read-out: MIC
[8] = Klebsiella pneumoniae IID 875, read-out: MIC
[9] = Serratia marcescens IID 620, read-out: MIC
[10] = Morganella morganii IID 602, read-out: MIC

In the case of `NC(=O)OC/C=C\C1=C(C(=O)[O-])N2C(=O)C(NC(=O)/C(=N\O)c3csc(N)n3)[C@H]2SC1.[Na+]` (stereo partly drawn) [Example 1, Sodium 7-[(Z)-2-(2-aminothiazol-4-yl)-2-hydroxyiminoacetamido]-3-[(Z)-3-carbamoyloxy-1-propenyl]-3-cephem-4-carboxylate], the MIC ([1]; Staphylococcus aureus, 209PJCL) is reported as 0.1 mg/L, the MIC ([2]; Escherichia coli) is reported as 0.025 mg/L and the MIC ([3]; Klebsiella pneumoniae) is reported as 0.012 mg/L. For the same molecule, the MIC ([4]; Serratia marcescens) was 0.025 mg/L and the MIC ([5]; Morganella morganii) was 0.012 mg/L.

Molecule `CO/N=C(\C(=O)NC1C(=O)N2C(C(=O)[O-])=C(/C=C\COC(N)=O)CS[C@H]12)c1csc(N)n1.[Na+]` (stereo partly drawn) [Example 7, Sodium 7-[(Z)-2-(2-aminothiazol-4-Yl)-2-methoxyiminoacetamido]-3-[(Z)-3-carbamoyloxy-1-propenyl]-3-cephem-4-carboxylate] has an MIC ([1]; Staphylococcus aureus, 209PJCL) of 0.8 mg/L, an MIC ([2]; Escherichia coli) of 0.2 mg/L and an MIC ([3]; Klebsiella pneumoniae) of 0.025 mg/L. The MIC ([4]; Serratia marcescens) was 0.025 mg/L and the MIC ([5]; Morganella morganii) was 0.025 mg/L.

`CNC(=O)OC/C=C\C1=C(C(=O)[O-])N2C(=O)C(NC(=O)/C(=N\O)c3csc(N)n3)[C@H]2SC1.[Na+]` (stereo partly drawn) [Example 9, Sodium 7-[(Z)-2-(2-aminothiazol-4-yl)-2-hydroxyiminoacetamido]-3-[(Z)-3-(N-methylcarbamoyloxy)-1-propenyl]-3-cephem-4-carboxylate] was tested, and the MIC ([1]; Staphylococcus aureus, 209PJCL) was 0.1 mg/L, the MIC ([2]; Escherichia coli) was 0.05 mg/L and the MIC ([3]; Klebsiella pneumoniae) was 0.012 mg/L. It also gave an MIC ([4]; Serratia marcescens) of 0.8 mg/L and an MIC ([5]; Morganella morganii) of 0.1 mg/L.

For `Nc1nc(/C(=N/O)C(=O)NC2C(=O)N3C(C(=O)O)=C(/C=C/Cn4cnnn4)CSC23)cs1` (stereo not drawn) [Example 11, 7-[2-(2-Aminothiazole)-2-hydroxyiminoacetamido]-3-(3-1H-tetrazolyl-1-propenyl-1-yl)-3-cephem-4-carboxylate], the MIC [1, 6] was 0.1 mg/L (≈ 0.209 µM), the MIC [2, 7] was 0.1 mg/L (≈ 0.209 µM) and the MIC [3, 8] was 0.05 mg/L (≈ 0.105 µM). It also gave an MIC [4, 9] of 0.8 mg/L (≈ 1.68 µM) and an MIC [5, 10] of 0.05 mg/L (≈ 0.105 µM).

Molecule `Nc1nc(/C(=N/O)C(=O)NC2C(=O)N3C(C(=O)O)=C(/C=C/Cn4ncnn4)CSC23)cs1` (stereo not drawn) [Example 12, 7-[2-(2-Aminothiazole)-2-hydroxyiminoacetamido]-3-(3-2H-tetrazolyl-1-propenyl-1-yl)-3-cephem-4-carboxylic Acid] has an MIC [1, 6] of 0.1 mg/L (≈ 0.209 µM), an MIC [2, 7] of 0.1 mg/L (≈ 0.209 µM) and an MIC [3, 8] of 0.1 mg/L (≈ 0.209 µM). For the same molecule, the MIC [4, 9] was 0.8 mg/L (≈ 1.68 µM) and the MIC [5, 10] was 0.05 mg/L (≈ 0.105 µM).

`NC(=O)OC/C=C/C1=C(C(=O)[O-])N2C(=O)C(NC(=O)/C(=N\O)c3csc(N)n3)[C@H]2SC1.[Na+]` (stereo partly drawn) [Example 13, Sodium 7-[(Z)-2-(2-aminothiazol-4-yl)-2-hydroxyiminoacetamido]-3-[(E)-3-carbamoyloxy-1-propenyl]-3-cephem-4-carboxylate] gave an MIC ([1]; Staphylococcus aureus, 209PJCL) of 0.1 mg/L, an MIC ([2]; Escherichia coli) of 0.1 mg/L and an MIC ([3]; Klebsiella pneumoniae) of 0.025 mg/L. The MIC ([4]; Serratia marcescens) was 0.1 mg/L and the MIC ([5]; Morganella morganii) was 0.05 mg/L.
